# Measured values published in patent US20180298010A1, “PRMT5 INHIBITORS AND USES THEREOF” (Epizyme, Inc., priority 2012, published 2018).
# pIC50: −log10 of the molar value.
# Target: T1, PRMT5/MEP50 (Homo sapiens, UniProt O14744)
# T1 construct: Flag-PRMT5; 6His-MEP50
# Assay: PRMT5 Biochemical Assay (PRMT5/MEP50 enzyme assay on peptide substrate, 3H-SAM Flashplate)
# Description: General Materials. S-adenosylmethionine (SAM), S-adenosylhomocysteine (SAH), bicine, KCl, Tween20, dimethylsulfoxide (DMSO), bovine skin gelatin (BSG), and Tris(2-carboxyethyl)phosphine hydrochloride solution (TCEP) were purchased from Sigma-Aldrich at the highest level of purity possible. ^3H-SAM was purchase from American Radiolabeled Chemicals with a specific activity of 80 Ci/mmol. 384-well streptavidin Flashplates were purchased from PerkinElmer.
# Substrates. Peptide representative of human histone H4 residues 1-15 was synthesized with a C-terminal linker-affinity tag motif and a C-terminal amide cap by 21st Century Biochemicals. The peptide was high high-perfomance liquid chromatography (HPLC) purified to greater than 95% purity and confirmed by liquid chromatography mass spectrometry (LC-MS). The sequence was Ac-[…][K-Biot]-amide (SEQ ID NO.:3).
# Molecular Biology: Full-length human PRMT5 (NM_006109.3) transcript variant 1 clone was amplified from a fetal brain cDNA library, incorporating flanking 5′ sequence encoding a FLAG tag ([…]) (SEQ ID NO.:4) fused directly to Ala 2 of PRMT5. Full-length human MEP50 (NM_024102) clone was amplified from a human testis cDNA library incorporating a 5′ sequence encoding a 6-histidine tag (MHHHHHH) (SEQ ID NO.:5) fused directly to Arg 2 of MEP50. The amplified genes were sublconed into pENTR/D/TEV (Life Technologies) and subsequently transferred by Gateway™ attL×attR recombination to pDEST8 baculvirus expression vector (Life Technologies).
# Protein Expression. Recombinant baculovirus and Baculovirus-Infected Insect Cells (BIIC) were generated according to Bac-to-Bac kit instructions (Life Technologies) and Wasilko, 2006, respectively. Protein over-expression was accomplished by infecting exponentially growing Spodoptera frugiperda (SF9) cell culture at 1.2×10^6cell/ml with a 5000 fold dilution of BIIC stock. Infections were carried out at 27° C. for 72 hours, harvested by centrifugation, and stored at −80° C. for purification.
# Protein Purification. […] Flag-PRMT5/6His-MeP50 was eluted with 300 mM Imidazole in the same buffer. The purity of recovered protein was 87%. Reference: Wasilko, D. J. and S. E. Lee: “TIPS: titerless infected-cells preservation and scale-up” Bioprocess J., 5 (2006), pp. 29-32.
# General Procedure for PRMT5/MEP50 Enzyme Assays on Peptide Substrates. The assays were all performed in a buffer consisting of 20 mM Bicine (pH=7.6), 1 mM TCEP, 0.005% BSG, and 0.002% Tween20, prepared on the day of use. Compounds in 100% DMSO (1 ul) were spotted into a polypropylene 384-well V-bottom plates (Greiner) using a Platemate Plus outfitted with a 384-channel head (Thermo Scientific). DMSO (1 ul) was added to Columns 11, 12, 23, 24, rows A-H for the maximum signal control and 1 ul of SAH, a known product and inhibitor of PRMT5/MEP50, was added to columns 11, 12, 23, 24, rows I-P for the minimum signal control. A cocktail (40 ul) containing the PRMT5/MEP50 enzyme and the peptide was added by Multidrop Combi (Thermo-Fisher). The compounds were allowed to incubate with PRMT5/MEP50 for 30 min at 25 degrees Celsius, then a cocktail (10 ul) containing ^3H-SAM was added to initiate the reaction (final volume=51 ul). The final concentrations of the components were as follows: PRMT5/MEP50 was 4 nM, ^3H-SAM was 75 nM, peptide was 40 nM, SAH in the minimum signal control wells was 100 uM, and the DMSO concentration was […]. The assays were stopped by the addition of non-radioactive SAM (10 ul) to a final concentration of 600 uM, which dilutes the ^3H-SAM to a level where its incorporation into the peptide substrate is no longer detectable. 50 ul of the reaction in the 384-well polypropylene plate was then transferred to a 384-well Flashplate and the biotinylated peptides were allowed to bind to the streptavidin surface for at least 1 hour before being washed three times with 0.1% Tween20 in a Biotek ELx405 plate washer. […]
# T1 sequence (O14744 with tags, fused parts or gaps): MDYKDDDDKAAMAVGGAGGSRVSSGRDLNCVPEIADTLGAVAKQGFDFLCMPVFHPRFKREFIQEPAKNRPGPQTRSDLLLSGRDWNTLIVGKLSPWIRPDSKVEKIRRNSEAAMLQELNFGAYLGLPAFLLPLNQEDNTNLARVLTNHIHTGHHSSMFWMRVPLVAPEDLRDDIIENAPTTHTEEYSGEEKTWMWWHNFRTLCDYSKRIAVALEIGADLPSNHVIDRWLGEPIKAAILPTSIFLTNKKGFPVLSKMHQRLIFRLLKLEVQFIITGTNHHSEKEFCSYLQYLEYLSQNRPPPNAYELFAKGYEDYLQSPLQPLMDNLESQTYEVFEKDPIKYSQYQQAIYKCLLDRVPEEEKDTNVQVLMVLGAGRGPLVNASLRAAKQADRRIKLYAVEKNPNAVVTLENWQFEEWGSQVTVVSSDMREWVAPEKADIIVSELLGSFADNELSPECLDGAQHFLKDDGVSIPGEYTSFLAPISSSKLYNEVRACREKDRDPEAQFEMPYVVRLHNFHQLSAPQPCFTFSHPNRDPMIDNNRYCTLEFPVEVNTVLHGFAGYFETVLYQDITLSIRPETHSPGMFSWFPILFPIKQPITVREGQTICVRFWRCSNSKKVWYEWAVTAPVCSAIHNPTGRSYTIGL
# T1 sequence (Q9BQA1 with tags, fused parts or gaps partner): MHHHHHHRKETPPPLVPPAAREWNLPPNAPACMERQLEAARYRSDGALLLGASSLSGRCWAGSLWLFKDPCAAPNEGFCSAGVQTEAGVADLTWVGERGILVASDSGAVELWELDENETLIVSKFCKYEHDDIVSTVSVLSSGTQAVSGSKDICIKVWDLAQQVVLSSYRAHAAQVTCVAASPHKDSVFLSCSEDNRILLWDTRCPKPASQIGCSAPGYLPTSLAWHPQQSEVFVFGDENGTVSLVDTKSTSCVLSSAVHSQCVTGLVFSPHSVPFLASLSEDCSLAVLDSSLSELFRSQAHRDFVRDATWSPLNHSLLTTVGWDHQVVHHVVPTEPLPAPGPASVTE
row,Compound,pIC50
1,COc1cccc(-c2cccc(OCC(O)CN3CCc4ccccc4C3)c2)c1 (stereo not shown) [Compound 74],6.00 to 7.00
2,"COc1ccc(-c2cccc(OCC(O)CN3CCc4ccccc4C3)c2)cc1 (stereo not shown) [Compound 75, 1-(3,4-dihydroisoquinolin-2(1H)-yl)-3-((4′-methoxy-[1,1′-biphenyl]-3-yl)oxy)propan-2-ol]",6.00 to 7.00
3,OC(COc1cccc(-c2cncc(F)c2)c1)CN1CCc2ccccc2C1 (stereo not shown) [Compound 76],5.00 to 6.00
4,OC(COc1cccc(-c2ccc(F)cc2)c1)CN1CCc2ccccc2C1 (stereo not shown) [Compound 77],5.00 to 6.00
5,Cc1ccc(-c2cccc(OCC(O)CN3CCc4ccccc4C3)c2)cn1 (stereo not shown) [Compound 78],5.00 to 6.00
6,O=C(NC1CCOCC1)c1cccc(NCC(O)CN2CCc3ccccc3C2)c1 (stereo not shown) [Compound 79],4.40 to 5.00
7,CC1c2ccccc2CCN1CC(O)COc1cccc(-c2ccc3ncn(C)c3c2)c1 (stereo not shown) [Compound 80],6.00 to 7.00
8,CC(C)n1cnc2ccc(-c3cccc(OCC(O)CN4CCc5ccccc5C4)c3)cc21 (stereo not shown) [Compound 81],6.00 to 7.00
9,"COc1ccc(Cn2cnc3ccc(-c4cccc(OCC(O)CN5CCc6ccccc6C5)c4)cc32)cc1 (stereo not shown) [Compound 82, 1-(3,4-dihydroisoquinolin-2(1H)-yl)-3-(3-(1-(4-methoxybenzyl)-1H-benzo[d]imidazol-6-yl)phenoxy)propan-2-ol]",6.00 to 7.00
10,OC(COc1cccc(-c2ccc3nc[nH]c3c2)c1)CN1CCc2ccccc2C1 (stereo not shown) [Compound 83],6.00 to 7.00
11,"OC(COc1cccc(-c2ccc3c(c2)OCCO3)c1)CN1CCc2ccccc2C1 (stereo not shown) [Compound 85, 1-(3-(2,3-dihydrobenzo[b][1,4]dioxin-6-yl)phenoxy)-3-(3,4-dihydroisoquinolin-2(1H)-yl)propan-2-ol]",6.00 to 7.00
12,"OC(COc1cccc(-c2cccc3c2oc2ccccc23)c1)CN1CCc2ccccc2C1 (stereo not shown) [Compound 86, 1-(3-(dibenzo[b,d]furan-4-yl)phenoxy)-3-(3,4-dihydroisoquinolin-2(1H)-yl)propan-2-ol]",6.00 to 7.00
13,OC(COc1cccc(-c2cccc(C(F)(F)F)c2)c1)CN1CCc2ccccc2C1 (stereo not shown) [Compound 87],5.00 to 6.00
14,COc1ccc(-c2cccc(OCC(O)CN3CCc4ccccc4C3)c2)c(Cl)c1 (stereo not shown) [Compound 88],6.00 to 7.00
15,"OC(COc1cccc(-c2cnc3ccccc3c2)c1)CN1CCc2ccccc2C1 (stereo not shown) [Compound 89, 1-(3,4-dihydroisoquinolin-2(1H)-yl)-3-(3-(quinolin-3-yl)phenoxy)propan-2-ol]",6.00 to 7.00
16,COc1ccc(-c2cccc(OCC(O)CN3CCc4ccccc4C3)c2)c(C)c1 (stereo not shown) [Compound 90],6.00 to 7.00
17,OC(COc1cccc(-c2cccc(Cl)c2)c1)CN1CCc2ccccc2C1 (stereo not shown) [Compound 91],5.00 to 6.00
18,OC(COc1cccc(-c2ccccc2Cl)c1)CN1CCc2ccccc2C1 (stereo not shown) [Compound 92],6.00 to 7.00
19,N#Cc1ccccc1-c1cccc(OCC(O)CN2CCc3ccccc3C2)c1 (stereo not shown) [Compound 93],6.00 to 7.00
20,N#Cc1ccc(-c2cccc(OCC(O)CN3CCc4ccccc4C3)c2)cc1 (stereo not shown) [Compound 94],6.00 to 7.00
21,Oc1cccc(-c2cccc(OCC(O)CN3CCc4ccccc4C3)c2)c1 (stereo not shown) [Compound 95],6.00 to 7.00
22,Oc1ccc(-c2cccc(OCC(O)CN3CCc4ccccc4C3)c2)cc1 (stereo not shown) [Compound 96],5.00 to 6.00
23,OC(COc1cccc(-c2ccncc2)c1)CN1CCc2ccccc2C1 (stereo not shown) [Compound 97],5.00 to 6.00
24,OC(COc1cccc(-c2ccccn2)c1)CN1CCc2ccccc2C1 (stereo not shown) [Compound 98],5.00 to 6.00
25,CN(CC(O)CN1CCc2ccccc2C1)c1cccc(C(=O)NC2CCOCC2)c1 (stereo not shown) [Compound 99],4.40 to 5.00
26,COc1cccc2c1CN(CC(O)COc1cccc(-c3ccc4ncn(C)c4c3)c1)CC2 (stereo not shown) [Compound 100],5.00 to 6.00
27,CC1CN(CC(O)COc2cccc(-c3ccc4ncn(C)c4c3)c2)Cc2ccccc21 (stereo not shown) [Compound 101],5.00 to 6.00
28,"OC(COc1cccc(-c2ccc3ncn(C4CCOCC4)c3c2)c1)CN1CCc2ccccc2C1 (stereo not shown) [Compound 103, 1-(3,4-dihydroisoquinolin-2(1H)-yl)-3-(3-(1-(tetrahydro-2H-pyran-4-yl)-1H-benzo[d]imidazol-6-yl)phenoxy)propan-2-ol]",6.00 to 7.00
